These results are taken from US9115159B2, “Phosphate compounds, a process for their preparation and pharmaceutical compositions containing them” (LES LABORATOIRES SERVIER, priority 2013, dated 2015).

Molecules are shown by their SMILES. Several values for one entry are separate records, joined by “and”; a condition that tells them apart may be missing. Equal values may be shown once.

One series has as its system caspase 3. Nature of the series: Induction of caspase activity in vivo (DEVDase activity in tumour lysates, RS4;11 xenograft). The arrangement: species or system mice (SCID strain). The conditions noted are these: 100 mg/kg p.o., 16 hours after treatment, RS4;11 tumour lysates, treated mice / control mice. The procedure: The ability of the compounds of formula (I′) to activate caspase 3 is evaluated in a xenograft model of RS4;11 leukaemia cells.
1×10^7 RS4;11 cells are grafted sub-cutaneously into immunosuppressed mice (SCID strain). 25 to 30 days after the graft, the animals are treated orally with the various compounds. Sixteen hours after treatment, the tumour masses are recovered and lysed, and the caspase 3 activity is measured in the tumour lysates.
This enzymatic measurement is carried out by assaying the appearance of a fluorigenic cleavage product (DEVDase activity, Promega). It is expressed in the form of an activation factor corresponding to the ratio between the two caspase activities: the activity for the treated mice divided by the activity for the control mice.
N-(4-Hydroxyphenyl)-3-{6-[((3S)-3-(4-morpholinylmethyl)-3,4-dihydro-2(1H)-isoquinolinyl)carbonyl]-1,3-benzodioxol-5-yl}-N-phenyl-5,6,7,8-tetrahydro-1-indolizine carboxamide (also referred to as the drug from Example 1) was tested. At a dose of 100 mg/kg p.o., the in vivo caspase activation factor is 29.3.

A short description of series [1]: In vitro test on human Caco-2 cells, cellular transport A to B. The conditions noted are these: human, Caco-2, drug incubated and measured, A to B, 1 or 3 μM, read-out: Papp, the drug after incubation of the drug. In kind it is in vitro ADME. A digest of the protocol: (§1)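 Apical-to-basolateral transport, prodrug or drug dosed apically at 1 or 3 μM in duplicate for 120 minutes. Apical samples at 0 and 120 min and basolateral samples at 120 min quantified by LC-MS/MS (LOQ 2 ng/mL) for prodrug and drug. Papp, predicted human Fabs and percent recovery calculated.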
Background: Passage across Caco-2 layers is used to estimate intestinal permeability.

The test system of the next series is human Caco-2 cells. The series is described as above. It is filed as in vitro ADME. The conditions noted are these: drug incubated and measured, 120 minutes. The gist of the method:
as §1

A further series can be described thus: Solubility in water. It is filed as physicochemical. The procedure: The solubility of compounds of formula (I) in water was measured and compared with that of compounds of formula (I′).
More specifically, 4-[{[3-(6-{[(3S)-3-(morpholin-4-ylmethyl)-3,4-dihydroisoquinolin-2(1H)-yl]carbonyl}-1,3-benzodioxol-5-yl)-5,6,7,8-tetrahydroindolizin-1-yl]carbonyl}-(phenyl)amino]phenyl disodium phosphate (also referred to as the compound of Example 1) was tested and compared to N-(4-hydroxyphenyl)-3-{6-[((3S)-3-(4-morpholinylmethyl)-3,4-dihydro-2(1H)-isoquinolinyl)carbonyl]-1,3-benzodioxol-5-yl}-N-phenyl-5,6,7,8-tetrahydro-1-indolizine carboxamide (also referred to as the drug from Example 1).
The solubilities of the compounds were also measured in a medium buffered to physiological pH (cf. Table 3).

For orientation: solubility means the dissolved amount per volume that the medium holds. A low value points to little dissolved substance. Consider `O=C(c1cc(-c2cc3c(cc2C(=O)N2Cc4ccccc4C[C@H]2CN2CCOCC2)OCO3)n2c1CCCC2)N(c1ccccc1)c1ccc(O)cc1` [Drug from Example 1, N-(4-hydroxyphenyl)-3-{6-[((3S)-3-(4-morpholinylmethyl)-3,4-dihydro-2(1H)-isoquinolinyl)carbonyl]-1,3-benzodioxol-5-yl}-N-phenyl-5,6,7,8-tetrahydro-1-indolizine carboxamide], for which the “in vivo caspase activation factor” value with caspase 3 amounted to 29.3. Further, the Papp A→B at 120 min in series [1] came to 6.5 nm/s. The “Yield (experiment yield), the drug after incubation of the drug” value with human Caco-2 cells is listed as “Yield (%) = 37”. Further, the “Fabs (predicted absorbed fraction in humans), the drug after incubation of the drug” value in the series with human Caco-2 cells (A to B, 1 or 3 μM) is on record as “Fabs (%) = 67”. Besides, the solubility in the series “Solubility in water” was 40 µg/mL and 56.2 µM.
